Results on seven compounds are retold here after US8735389B2, “Treating psychological conditions using muscarinic receptor M1 antagonists” (priority 2006, dated 2014).

One data set deals with cardiac receptors. Particulars: cited from earlier work.
Another data set relates to cortical receptors. Particulars: cited from earlier work.
The test system of a further data set is muscarinic receptor. The note with it: cited from earlier work.
Another data set has as its system male CD-1 mice. Briefly: tail suspension test (immobility time). The data set is classed as in vivo. The text has this: Antidepressant Effects: The tail suspension methodology was used to assess compounds for their antidepressant effects. The methodology was adapted from the original description by Stem et al. (Stem L, et al., Psychopharmacol 85:367-70, 1985; Stem L, et al., Prog Neuro-Psychopharmacol & Biol Psychiat 11:659-71, 1987) and later modifications by Crowley et al. (Crowley J J, et al., Pharmacol Biochem Beh 78(2):269-74, 2004). Seven- to eight-week-old (25-35 grams) male, CD-1 mice were housed for one week prior to testing. Mice (n=8-10 per dose group) were dosed intraperitoneally (ip) or orally (po) with the compound under investigation, and returned to their home cage for the appropriate pretreatment interval (45-60 min). Using tape, the mice were then suspended by the tail from a strain gauge. Activity over the next 6 minutes was scored by computer as either: 1) Immobility, 2) Escape Behavior or 3) Major Escape Behavior, based on the intensity of movements registered by the strain gauge. Total Immobility was calculated and expressed in seconds. […] Treatment effects are presented in Table 1 and FIGS. 1-6 as both raw Time Spent Immobile (in seconds±SEM [standard error of the mean]) and as % Reduction in Immobility=[1−(Treatment Immobility/Vehicle Immobility)]×100%. Similar superscripts in the Dose column of Table 1 denote values derived from the same experiment (to facilitate comparisons between individual treatments and co-administrations). Statistical analyses were performed using a 1-way ANOVA (analysis of variance) followed by a Bonferroni multiple comparison test with the overall alpha set at 0.05. In Table 1, asterisks (*) denote significant effects compared to vehicle-treated mice, while letters (a or b) denote significant effects compared to mice treated with a single compound (“a” for significance from antidepressant and “b” for significance from telenzepine). In Table 1, the symbol denotes p<0.05, two symbols denote p<0.01 and three symbols denote p<0.001). The symbols used for denoting statistical significance may be different in the corresponding figures.

Data set [1] has as its system dopamine efflux in the striatum. The note with it: local microinjection; cited from earlier work.
The next data set deals with mice and rats. The note with it: administered systemically; cited from earlier work.
For data set [2] the following is noted: at 90 degrees; cited from earlier work.
The subject of another data set is GABA efflux. The note with it: directly injected into the midbrain; cited from earlier work.

Regarding `Cc1scc2c1N(C(=O)CN1CCN(C)CC1)c1ccccc1NC2=O` [(+) form of telenzepine], in the data set with cardiac receptors, the “factor by which the (+) form is more potent than the (−) form” value is 50. Further, the “factor by which the (+) form is more effective than the (−) isomer” value with cortical receptors was 400. Besides, the antimuscarinic activity entry with muscarinic receptor was “potent antimuscarinic activity”.
`Cc1scc2c1N(C(=O)CN1CCN(C)CC1)c1ccccc1NC2=O` [(−) form]: in the data set with muscarinic receptor, the antimuscarinic activity entry is reported as “considerably less active”.
Consider `CNCCC(Oc1ccc(C(F)(F)F)cc1)c1ccccc1` (stereo not shown) [Fluoxetine, fluoxetine], for which the “Reduction in Immobility” value with male CD-1 mice (4 mg/kg ip, experiment c) stood at 0%; in the data set with male CD-1 mice (4 mg/kg ip, experiment g), 45%; with male CD-1 mice (20 mg/kg ip, experiment g), 45%; in the data set on male CD-1 mice (40 mg/kg ip, experiment g) it was 64%. Moreover, the “Treatment Immobility Time” value with male CD-1 mice (4 mg/kg ip, experiment c) came to 97 ± 11 s; in the data set with male CD-1 mice (4 mg/kg ip, experiment g) it was 81 ± 16 s; with male CD-1 mice (20 mg/kg ip, experiment g) it was 82 ± 16 s; in the data set with male CD-1 mice (40 mg/kg ip, experiment g) it was 53 ± 14 s. In the data set with male CD-1 mice (to 4 mg/kg by co-administering 10 mg/kg TZP), the “lowering of the effective antidepressant dose (estimated)” value was “approximately 7 fold”.
For `CN1CCN(CC(=O)N2c3ccccc3C(=O)Nc3cccnc32)CC1` [Pirenzepine, 5,11-Dihydro-11-[(4-methyl-1-piperazinyl)acetyl]-6H-pyrido[2,3-b][1,4]benzodiazepin-6-one], in data set [1], the “dopamine efflux in the striatum” value is given as “decreased dopamine efflux in the striatum”. Also, in the data set on mice and rats, the behavioral effects result is given as “failed to elicit any behavioral effects”. Also, the “Reduction in Immobility” value is −11% in the data set with male CD-1 mice (5 mg/kg ip, experiment f); 27% in the data set with male CD-1 mice (25 mg/kg ip, experiment f); 38% with male CD-1 mice (50 mg/kg ip, experiment f). Further, the “Treatment Immobility Time” value was 137 ± 15 s in the data set on male CD-1 mice (5 mg/kg ip, experiment f); 90 ± 17 s in the data set with male CD-1 mice (25 mg/kg ip, experiment f); 76 ± 12 s in the data set on male CD-1 mice (50 mg/kg ip, experiment f). In addition, the “effect on immobility (in words)” value in the data set on male CD-1 mice (alone at 50 mg/kg ip (FIG. 1)) is “significant reduction in immobility”.
`CN[C@H]1CC[C@@H](c2ccc(Cl)c(Cl)c2)c2ccccc21` [Sertraline, sertraline]: the “Reduction in Immobility” value in the data set on male CD-1 mice (1 mg/kg ip, experiment a) is listed as 24%; in the data set on male CD-1 mice (5 mg/kg ip, experiment h) it was 48%; with male CD-1 mice (5 mg/kg ip, experiment h, listed as sertraline), 48%; in the data set on male CD-1 mice (20 mg/kg ip, experiment h), 59%; in the data set on male CD-1 mice (40 mg/kg ip, experiment h), 64%. Moreover, the “Treatment Immobility Time” value worked out at 87 ± 14 s in the data set with male CD-1 mice (1 mg/kg ip, experiment a); 63 ± 08 s in the data set on male CD-1 mice (5 mg/kg ip, experiment h); 50 ± 16 s in the data set with male CD-1 mice (20 mg/kg ip, experiment h); 44 ± 15 s in the data set on male CD-1 mice (40 mg/kg ip, experiment h). In the data set on male CD-1 mice (to 1 mg/kg by co-administering 5 mg/kg TZP), the “lowering of the effective antidepressant dose” value worked out at 5 fold.
On to `Cc1scc2c1N(C(=O)CN1CCN(C)CC1)c1ccccc1NC2=O` [Telenzepine, 4,9-Dihydro-3-methyl-4-[(4-methyl-1-piperazinyl)acetyl]-10H-thieno[3,4-b][1,5]benzodiazepin-10-one], for which the “half time of interconversion of the two forms” value in data set [2] is “approximately 200 hours”. In addition, the “Reduction in Immobility” value with male CD-1 mice (5 mg/kg ip, experiment a) is recorded as 30%; in the data set with male CD-1 mice (5 mg/kg ip, experiment b), 21%; in the data set on male CD-1 mice (5 mg/kg ip, experiment d), −27%; in the data set on male CD-1 mice (10 mg/kg ip, experiment c), 34%; with male CD-1 mice (25 mg/kg ip, experiment d), 33%; with male CD-1 mice (50 mg/kg ip, experiment d) it was 51%. Besides, the “Reduction in Immobility” value in the data set with male CD-1 mice (60 mg/kg po, experiment e) amounted to 45%; in the data set on male CD-1 mice (80 mg/kg po, experiment e), 37%; in the data set on male CD-1 mice (100 mg/kg po, experiment e) it was 55%. For the same compound, the “Treatment Immobility Time” value with male CD-1 mice (5 mg/kg ip, experiment a) was found to be 80 ± 14 s; in the data set with male CD-1 mice (5 mg/kg ip, experiment b), 90 ± 18 s; with male CD-1 mice (5 mg/kg ip, experiment d) it was 159 ± 23 s; in the data set on male CD-1 mice (10 mg/kg ip, experiment c) it was 64 ± 15 s; with male CD-1 mice (25 mg/kg ip, experiment d), 84 ± 07 s; in the data set on male CD-1 mice (50 mg/kg ip, experiment d), 61 ± 11 s. Moreover, the “Treatment Immobility Time” value with male CD-1 mice (60 mg/kg po, experiment e) came to 71 ± 15 s; in the data set with male CD-1 mice (80 mg/kg po, experiment e) it was 82 ± 18 s; with male CD-1 mice (100 mg/kg po, experiment e), 59 ± 10 s. Also, the “effect on immobility (in words)” value with male CD-1 mice (alone at 25 mg/kg ip (FIG. 2)) and in the data set on male CD-1 mice (alone at 60 mg/kg po (FIG. 3)) was “significant reduction in immobility” throughout. Further, the GABA efflux entry in the data set with GABA efflux is reported as “reduced GABA efflux”.
Regarding `COc1ccc(C(CN(C)C)C2(O)CCCCC2)cc1` (stereo not shown) [Venlafaxine, venlafaxine], the “Reduction in Immobility” value in the data set with male CD-1 mice (3 mg/kg ip, experiment i) was 8%; with male CD-1 mice (10 mg/kg ip, experiment b), 10%; in the data set with male CD-1 mice (10 mg/kg ip, experiment i), −4%; in the data set on male CD-1 mice (30 mg/kg ip, experiment i) it was 72%; in the data set with male CD-1 mice (30 mg/kg ip, experiment i, listed as venlafaxine), 72%. In addition, the “Treatment Immobility Time” value in the data set on male CD-1 mice (3 mg/kg ip, experiment i) is 103 ± 21 s; in the data set on male CD-1 mice (10 mg/kg ip, experiment b), 103 ± 15 s; with male CD-1 mice (10 mg/kg ip, experiment i), 116 ± 20 s; in the data set with male CD-1 mice (30 mg/kg ip, experiment i), 31 ± 09 s. Also, the “lowering of the effective antidepressant dose” value in the data set with male CD-1 mice (to 10 mg/kg by co-administering 5 mg/kg telenzepine) came to 3 fold.
